This is an account of results in US20260297060A1, “COMPOUNDS FOR THE DEGRADATION OF MUTANT BRAF” (C4 THERAPEUTICS, INC., priority 2023, published 2026).

One assay has as its system A375-NRAS^Q61K cells. Description: CTGlo Cell Viability Assay, A375-NRAS^Q61K (A375.11) cells, 96 hours. In kind it is cell-based, human. The following applies: A375.11 (A375-NRAS^Q61K) cells; for Emax / CTGlo A375.11 96 hours Emax: lowest % viability achieved. In outline: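 Viability as CellTiter-Glo ATP luminescence after 96 h compound exposure at 37 °C; A375.11 (BRAF V600E/NRAS Q61K) cells at 250/well, top final concentration 10 μM in half-log steps. Signal was background-corrected and set relative to DMSO controls. A 4-parameter logistic fit gave GI50 (50% crossing) and Emax.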

Assay [1] has as its target T1, human bile salt export pump (BSEP) efflux transporter (Homo sapiens, UniProt O95342).
T1 construct: purchased SOLVO Biotechnology Charles River Laboratories, Szeged, Hungary; host or cells: HEK293 (inside out membrane vesicles)
Description: BSEP Vesicular Transport Inhibition Assay (IC50 determination). In kind it is biochemical. The following applies: human BSEP (HEK293) vesicles, taurocholate 0.2 μM, 4 mM Mg-ATP, 10 concentrations, 1 replicate. Here is the method: The vesicular transport (VT) assays were performed using inside out membrane vesicles derived from HEK293 cells expressing the specified human bile salt export pump (BSEP) efflux transporter. The membrane vesicles were procured from SOLVO Biotechnology Charles River Laboratories, Szeged, Hungary.
The principle of the assay relies on measuring the accumulation of substrate into inside out vesicles containing the efflux transporter. By utilizing inside out vesicles, the ATP-dependent transport of substrate is directed into the vesicular lumen, where low permeability compounds are then essentially trapped.
For the IC50 screen inhibition assay, 10 concentrations of each compound were tested in the presence of ATP (active transport) in 1 replicate.
The solvent control (DMSO) was tested in the presence of ATP (active transport) and in the presence of AMP (background) in 8 replicates.
Vesicular transport inhibition assays were performed using the specific parameters for each transporter inhibition assay described in Table 53.
Table 54 specifies treatment groups and concentration of compounds, that were examined in the vesicular transport inhibition assay. Detailed data of IC50 screen inhibition assay are shown in Table 55 and detailed data of 1 concentration inhibition assay are shown in Table 56.
The vesicular transport inhibition assay was performed with 4 mM Mg-ATP. For the IC50 screen inhibition assay, 10 concentrations of each compound were tested in the presence of ATP in 1 replicate. For the 1 concentration inhibition assay, 1 concentration of each compound was tested in the presence of ATP (active transport) in 2 replicates. The solvent control (DMSO) was tested in the presence of 4 mM Mg-ATP (active transport) and in the presence of 4 mM AMP (background) in 8 replicates.
The BSEP membrane vesicle suspension was mixed with the ice-cold transport buffer, then the taurocholate probe substrate solution was added (Reaction mixture, 50 μL per well). The compounds were added to the reaction mixture at 1.5-times the final assay concentration. […].
Reaction mixtures and the start reagent (Mg-ATP or AMP in transport buffer) were pre-warmed separately for 15 minutes to reach the incubation temperature of 37° C. […]
The reaction was initiated by the addition of the start reagent (25 μL) to the reaction mixture (diluting the reaction mixture to the final concentration). […] After the 5-minute incubation at 37° C., the reaction was stopped by the addition of 250 μL ice-cold washing mix to each well. […]
The samples were then be transferred to a filter plate and washed with 200 μL cold washing mix5-times to remove any free compounds or taurocholate probe substrate. The amount of taurocholate probe substrate inside the filtered vesicles were determined by liquid scintillation counting. […]

T1 sequence (O95342 whole entry): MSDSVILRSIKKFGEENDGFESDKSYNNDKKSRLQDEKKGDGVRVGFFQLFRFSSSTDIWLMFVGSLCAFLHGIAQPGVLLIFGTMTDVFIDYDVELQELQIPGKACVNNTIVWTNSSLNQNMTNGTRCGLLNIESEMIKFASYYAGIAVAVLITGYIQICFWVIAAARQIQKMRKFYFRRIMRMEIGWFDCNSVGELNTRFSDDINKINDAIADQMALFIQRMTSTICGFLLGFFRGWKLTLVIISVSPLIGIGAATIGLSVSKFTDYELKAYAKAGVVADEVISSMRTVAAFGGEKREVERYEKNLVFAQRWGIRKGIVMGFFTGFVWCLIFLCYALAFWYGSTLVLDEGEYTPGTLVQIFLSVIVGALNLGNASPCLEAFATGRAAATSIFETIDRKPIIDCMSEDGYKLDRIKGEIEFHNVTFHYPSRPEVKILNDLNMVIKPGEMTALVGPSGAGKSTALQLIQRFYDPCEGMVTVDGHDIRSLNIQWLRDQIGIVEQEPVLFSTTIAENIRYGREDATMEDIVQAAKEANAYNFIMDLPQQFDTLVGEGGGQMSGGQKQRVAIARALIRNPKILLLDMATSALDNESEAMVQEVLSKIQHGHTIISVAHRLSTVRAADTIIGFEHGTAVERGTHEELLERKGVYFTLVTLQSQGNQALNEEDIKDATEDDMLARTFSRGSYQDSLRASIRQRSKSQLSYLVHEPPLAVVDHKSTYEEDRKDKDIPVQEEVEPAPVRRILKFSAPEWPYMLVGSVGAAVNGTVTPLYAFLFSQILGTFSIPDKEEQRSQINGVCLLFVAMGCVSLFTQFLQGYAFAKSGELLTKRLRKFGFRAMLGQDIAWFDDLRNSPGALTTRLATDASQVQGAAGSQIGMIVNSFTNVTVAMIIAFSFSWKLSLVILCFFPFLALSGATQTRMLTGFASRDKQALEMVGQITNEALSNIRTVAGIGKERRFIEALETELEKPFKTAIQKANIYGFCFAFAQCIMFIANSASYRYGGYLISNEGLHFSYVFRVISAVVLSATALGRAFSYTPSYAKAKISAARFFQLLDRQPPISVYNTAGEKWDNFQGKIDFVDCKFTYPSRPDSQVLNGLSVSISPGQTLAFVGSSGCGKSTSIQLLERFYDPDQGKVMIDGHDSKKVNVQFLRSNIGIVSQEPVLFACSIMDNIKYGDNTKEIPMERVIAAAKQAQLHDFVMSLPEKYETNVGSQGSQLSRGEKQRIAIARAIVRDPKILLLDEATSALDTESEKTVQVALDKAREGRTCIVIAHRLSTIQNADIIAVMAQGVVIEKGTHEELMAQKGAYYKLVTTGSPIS

`CCN(C)S(=O)(=O)Nc1ccc(F)c(Oc2ccc3ncn(C4CC5(CCN(C6CCC(c7cc8c(cc7F)c(N7CCC(=O)NC7=O)nn8C)CC6F)CC5)C4)c(=O)c3c2)c1C#N` (single isomer, unassigned) [Compound 83, 6-[2-cyano-3-[[ethyl(methyl)sulfamoyl]amino]-6-fluoro-phenoxy]-3-[7-[4-[3-(2,4-dioxohexahydropyrimidin-1-yl)-5-fluoro-1-methyl-indazol-6-yl]-2-fluoro-cyclohexyl]-7-azaspiro[3.5]nonan-2-yl]-4-oxo-quinazoline]: in the assay on A375-NRAS^Q61K cells (Homo sapiens, 96 h), the GI50 is under 1000 nM and the Emax was under 50%. In addition, the “BSEP Inhibition/IC50” value in assay [1] (in nM) was determined as 14100.
With `CCN(C)S(=O)(=O)Nc1ccc(F)c(Oc2ccc3ncn(C4CC5(CCN(C6CCC(c7cc8c(cc7F)c(N7CCC(=O)NC7=O)nn8C)CC6F)CC5)C4)c(=O)c3c2)c1C#N` (single isomer, unassigned) [Compound 85], in the assay with A375-NRAS^Q61K cells, the concentration for 50% growth inhibition (GI50) was under 1000 nM and the “CTGlo A375.11 96 hours Emax” value is recorded as “*** (<=50%)”. Moreover, the BSEP Inhibition/IC50 in assay [1] was 9810 nM.
The corresponding values for `CCN(C)S(=O)(=O)Nc1ccc(F)c(Oc2ccc3ncn(C4CC5(CCN(C6CCC(c7cc8c(cc7F)c(N7CCC(=O)NC7=O)nn8C)CC6F)CC5)C4)c(=O)c3c2)c1C#N` (single isomer, unassigned) [Compound 86] are under 1000 nM, “*** (<=50%)” and 9880 nM.
On to `Cn1nc(N2CCC(=O)NC2=O)c2cc(F)c(C3CCC(N4CCC5(CC4)CC(n4cnc6ccc(Oc7c(F)ccc(NS(=O)(=O)C8CCCC8)c7C#N)cc6c4=O)C5)CC3)cc21` (single isomer, unassigned) [Compound 93, N-[2-cyano-3-[3-[7-[4-[3-(2,4-dioxohexahydropyrimidin-1-yl)-5-fluoro-1-methyl-indazol-6-yl]cyclohexyl]-7-azaspiro[3.5]nonan-2-yl]-4-oxo-quinazolin-6-yl]oxy-4-fluoro-phenyl]cyclopentanesulfonamide], for which, in the assay on A375-NRAS^Q61K cells (Homo sapiens, 96 h), the GI50 was under 1000 nM and the Emax was under 50%. For the same compound, the “BSEP Inhibition/IC50” value in assay [1] (in nM) is recorded as over 40000.
The corresponding values for `CCN(C)S(=O)(=O)Nc1ccc(F)c(Oc2ccc3ncc(OCC4CCN(C5CCC(c6cc7c(cc6F)c(N6CCC(=O)NC6=O)nn7C)CC5)CC4)nc3c2)c1C#N` (single isomer, unassigned) [Compound 118, 7-[2-cyano-3-[[ethyl(methyl)sulfamoyl]amino]-6-fluoro-phenoxy]-2-[[1-[4-[3-(2,4-dioxohexahydropyrimidin-1-yl)-5-fluoro-1-methyl-indazol-6-yl]cyclohexyl]-4-piperidyl]methoxy]quinoxaline] are 1000 to 10000 nM, 50 to 90% and over 40000.
As to `CN(CCO)S(=O)(=O)Nc1ccc(F)c(Oc2ccc3ncn(C4CC5(CCN(C6CCC(c7cc8c(cc7F)c(N7CCC(=O)NC7=O)nn8C)CC6F)CC5)C4)c(=O)c3c2)c1C#N` (single isomer, unassigned) [Compound 145, 6-[2-cyano-6-fluoro-3-[[2-hydroxyethyl(methyl)sulfamoyl]amino]phenoxy]-3-[7-[4-[3-(2,4-dioxohexahydropyrimidin-1-yl)-5-fluoro-1-methyl-indazol-6-yl]-2-fluoro-cyclohexyl]-7-azaspiro[3.5]nonan-2-yl]-4-oxo-quinazoline], the GI50 in the assay with A375-NRAS^Q61K cells lay within 1000 to 10000 nM. In the assay on A375-NRAS^Q61K cells (Homo sapiens, 96 h), the Emax was 50 to 90%. For the same compound, in assay [1] (in nM), the “BSEP Inhibition/IC50” value worked out at 21630.
In the assay on A375-NRAS^Q61K cells (Homo sapiens, 96 h), `CCN(C)S(=O)(=O)Nc1ccc(F)c(Oc2ccc3ncc([C@H]4COC5(CCN(C6CCC(c7cc8c(cc7F)c(N7CCC(=O)NC7=O)nn8C)CC6F)CC5)C4)nc3c2)c1C#N` (single isomer, unassigned) [Compound 160] showed a 50% growth inhibitory concentration (GI50) of under 1000 nM and an Emax of 50 to 90%. In assay [1], the BSEP Inhibition/IC50 was 1580 nM.
In the assay on A375-NRAS^Q61K cells (Homo sapiens, 96 h), `CCN(C)S(=O)(=O)Nc1ccc(F)c(Oc2ccc3ncc(C4CC5(CCN(C6CCC(c7cc8c(cc7F)c(N7CCC(=O)NC7=O)nn8C)CC6)CC5)C4)nc3c2)c1C#N` (single isomer, unassigned) [Compound 180, 7-[2-cyano-3-[[ethyl(methyl)sulfamoyl]amino]-6-fluoro-phenoxy]-2-[7-[4-[3-(2,4-dioxohexahydropyrimidin-1-yl)-5-fluoro-1-methyl-indazol-6-yl]cyclohexyl]-7-azaspiro[3.5]nonan-2-yl]quinoxaline] gave a GI50 of under 1000 nM and an Emax of under 50%. Also, the “BSEP Inhibition/IC50” value in assay [1] (in nM) stood at 12180.
With `CCN(C)S(=O)(=O)Nc1ccc(F)c(Oc2ccc3ncn(C4CC5(C4)CN(C4CCC(c6cc7c(cc6F)c(N6CCC(=O)NC6=O)nn7C)CC4)C5)c(=O)c3c2)c1C#N` (single isomer, unassigned) [Compound 204, 6-[2-cyano-3-[[ethyl(methyl)sulfamoyl]amino]-6-fluoro-phenoxy]-3-[2-[4-[3-(2,4-dioxohexahydropyrimidin-1-yl)-5-fluoro-1-methyl-indazol-6-yl]cyclohexyl]-2-azaspiro[3.3]heptan-6-yl]-4-oxo-quinazoline], in the assay on A375-NRAS^Q61K cells, the 50% growth inhibitory concentration (GI50) is under 1000 nM; the “CTGlo A375.11 96 hours Emax” value was “** (<90% and >50%)”. Besides, the “BSEP Inhibition/IC50” value in assay [1] (in nM) is listed as over 40000.
Turning to `CCN(C)S(=O)(=O)Nc1ccc(F)c(Oc2ccc3ncc(OC4CC5(CCN(C6CCC(c7cc8c(cc7F)c(N7CCC(=O)NC7=O)nn8C)CC6)CC5)C4)nc3c2)c1C#N` (single isomer, unassigned) [Compound 218, 7-[2-cyano-3-[[ethyl(methyl)sulfamoyl]amino]-6-fluoro-phenoxy]-2-[[7-[4-[3-(2,4-dioxohexahydropyrimidin-1-yl)-5-fluoro-1-methyl-indazol-6-yl]cyclohexyl]-7-azaspiro[3.5]nonan-2-yl]oxy]quinoxaline], the 50% growth inhibitory concentration (GI50) with A375-NRAS^Q61K cells was under 1000 nM. Also, the Emax in the assay with A375-NRAS^Q61K cells (Homo sapiens, 96 h) fell in the range of 50 to 90%. Moreover, the “BSEP Inhibition/IC50” value in assay [1] (in nM) amounted to 13210.
In the assay with A375-NRAS^Q61K cells (Homo sapiens, 96 h), `CCN(C)S(=O)(=O)Nc1ccc(F)c(Oc2ccc3ncn([C@H]4COC5(CCN(C6CC7(C6)CN(c6cc8c(cc6F)c(N6CCC(=O)NC6=O)nn8C)C7)CC5)C4)c(=O)c3c2)c1C#N` [Compound 26, (3R)-3-[6-[2-cyano-3-[[ethyl(methyl)sulfamoyl]amino]-6-fluoro-phenoxy]-4-oxo-quinazolin-3-yl]-8-[2-[3-(2,4-dioxohexahydropyrimidin-1-yl)-5-fluoro-1-methyl-indazol-6-yl]-2-azaspiro[3.3]heptan-6-yl]-1-oxa-8-azaspiro[4.5]decane] had a GI50 of under 1000 nM and an Emax of 50 to 90%. In addition, the “BSEP Inhibition/IC50” value in assay [1] (in nM) stood at 21770.
Regarding `CCN(C)S(=O)(=O)Nc1ccc(F)c(Oc2ccc3ncn([C@H]4COC5(CCC(N6CC7(CN(c8ccc(NC9CCC(=O)NC9=O)cc8F)C7)C6)CC5)C4)c(=O)c3c2)c1C#N` (stereo partly drawn) [Compound 30, 6-[2-cyano-3-[[ethyl(methyl)sulfamoyl]amino]-6-fluoro-phenoxy]-3-[(3R)-8-[6-[4-[(2,6-dioxo-3-piperidyl)amino]-2-fluoro-phenyl]-2,6-diazaspiro[3.3]heptan-2-yl]-1-oxaspiro[4.5]decan-3-yl]-4-oxo-quinazoline], in the assay with A375-NRAS^Q61K cells (Homo sapiens, 96 h), the GI50 fell in the range of 1000 to 10000 nM and the Emax is under 50%. Also, in assay [1], the BSEP Inhibition/IC50 was found to be 8520 nM.
